Patent US12723063B2, “GIPR-agonist compounds” (Eli Lilly and Company, priority 2019, dated 2026)
*1 amine or outer side, *2 acyl side, *3 side chain or, on linkers, in order; H or OH if unused. Where a SMILES comes first, the peptide text is derived from it. Side-chain parts run from the residue outwards. [ ]: non-standard residue; d: D form. The star is where a group is joined. C20 diacid = O=C(O)CCCCCCCCCCCCCCCCCCC(=O)*; γGlu = O=C(O)[C@H](CCC(=O)[*:2])N[*:1]; 4Pal = N[C@@H](Cc1ccncc1)C(=O)O; αMeL = CC(C)C[C@](C)(N)C(=O)O; AEEA = NCCOCCOCC(=O)O; Aib = CC(C)(N)C(=O)O

Molecular target: T1, human GIPR (Homo sapiens, UniProt P48546)
T1 construct: expressed in transfected cells; crude membranes
T1 sequence (P48546 22-466): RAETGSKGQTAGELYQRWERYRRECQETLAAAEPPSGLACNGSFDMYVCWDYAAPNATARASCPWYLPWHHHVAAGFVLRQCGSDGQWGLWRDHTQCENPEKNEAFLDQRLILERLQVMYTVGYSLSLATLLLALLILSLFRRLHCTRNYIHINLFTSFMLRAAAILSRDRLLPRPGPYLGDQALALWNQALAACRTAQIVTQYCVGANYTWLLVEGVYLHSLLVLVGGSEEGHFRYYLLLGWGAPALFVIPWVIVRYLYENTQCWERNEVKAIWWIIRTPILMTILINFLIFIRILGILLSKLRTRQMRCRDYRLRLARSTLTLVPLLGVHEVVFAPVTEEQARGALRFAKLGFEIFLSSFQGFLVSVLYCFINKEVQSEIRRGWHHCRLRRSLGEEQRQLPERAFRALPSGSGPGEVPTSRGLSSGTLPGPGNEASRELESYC
Experiment: [125I]-GIP binding, SPA with WGA beads, 0.1% bacitracin
Conditions: geometric mean, read-out: hGIPR Ki
In short: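 Ki values are geometric means (SEM, n independent days), derived from four-parameter nonlinear regression of IC50. Membranes came from hGIPR-expressing CHO cells.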

Structure (SMILES)	Ki [nM]
CC[C@H](C)[C@H](NC(=O)[C@H](Cc1ccccc1)NC(=O)[C@@H](NC(=O)CNC(=O)[C@H](CCC(=O)O)NC(=O)C(C)(C)NC(=O)[C@@H](N)Cc1ccc(O)cc1)[C@@H](C)O)C(=O)N[C@@H](CO)C(=O)N[C@@H](CC(=O)O)C(=O)N[C@@H](Cc1ccc(O)cc1)C(=O)N[C@@H](CO)C(=O)N[C@H](C(=O)N[C@@](C)(CC(C)C)C(=O)N[C@@H](CC(C)C)C(=O)N[C@@H](CC(=O)O)C(=O)N[C@@H](CCCCN)C(=O)N[C@@H](CCCCNC(=O)COCCOCCNC(=O)COCCOCCNC(=O)CC[C@H](NC(=O)CCCCCCCCCCCCCCCCCCC(=O)O)C(=O)O)C(=O)N[C@@H](Cc1c[nH]cn1)C(=O)N[C@@H](CCC(N)=O)C(=O)NC(C)(C)C(=O)N[C@@H](CC(=O)O)C(=O)N[C@@H](Cc1ccccc1)C(=O)N[C@H](C(=O)N[C@@H](CCC(=O)O)C(=O)N[C@@H](Cc1ccncc1)C(=O)N[C@@H](CC(C)C)C(=O)N[C@@H](CC(C)C)C(=O)N[C@@H](C)C(=O)N[C@H](C(=O)NCC(=O)N1CCC[C@H]1C(=O)N[C@@H](CO)C(=O)N[C@@H](CO)C(=O)NCC(=O)N[C@@H](C)C(=O)N1CCC[C@H]1C(=O)N1CCC[C@H]1C(=O)N1CCC[C@H]1C(=O)N[C@@H](CO)C(N)=O)[C@@H](C)O)C(C)C)[C@@H](C)CC [Example 70] (H-Y[Aib]EGTFISDYSI[αMeL]LDKK([AEEA-AEEA-γGlu-C20 diacid])HQ[Aib]DFVE[4Pal]LLATGPSSGAPPPS-NH2)	0.0421
CC[C@H](C)[C@H](NC(=O)[C@H](Cc1ccccc1)NC(=O)[C@@H](NC(=O)CNC(=O)[C@H](CCC(=O)O)NC(=O)C(C)(C)NC(=O)[C@@H](N)Cc1ccc(O)cc1)[C@@H](C)O)C(=O)N[C@@H](CO)C(=O)N[C@@H](CC(=O)O)C(=O)N[C@@H](Cc1ccc(O)cc1)C(=O)N[C@@H](CO)C(=O)N[C@H](C(=O)N[C@@](C)(CC(C)C)C(=O)N[C@@H](CC(C)C)C(=O)N[C@@H](CC(=O)O)C(=O)N[C@@H](CCCCN)C(=O)N[C@@H](CCCCNC(=O)COCCOCCNC(=O)COCCOCCNC(=O)CC[C@H](NC(=O)CCCCCCCCCCCCCCCCCCC(=O)O)C(=O)O)C(=O)N[C@@H](Cc1c[nH]cn1)C(=O)N[C@@H](CCC(N)=O)C(=O)NC(C)(C)C(=O)N[C@@H](CC(=O)O)C(=O)N[C@@H](Cc1ccccc1)C(=O)N[C@H](C(=O)N[C@@H](CCC(=O)O)C(=O)N[C@@H](Cc1c[nH]c2ccccc12)C(=O)N[C@@H](CC(C)C)C(=O)N[C@@H](CC(C)C)C(=O)N[C@@H](CCC(=O)O)C(=O)N[C@H](C(=O)NCC(=O)N1CCC[C@H]1C(=O)N[C@@H](CO)C(=O)N[C@@H](CO)C(=O)NCC(=O)N[C@@H](C)C(=O)N1CCC[C@H]1C(=O)N1CCC[C@H]1C(=O)N1CCC[C@H]1C(=O)N[C@@H](CO)C(N)=O)[C@@H](C)O)C(C)C)[C@@H](C)CC [Example 71] (H-Y[Aib]EGTFISDYSI[αMeL]LDKK([AEEA-AEEA-γGlu-C20 diacid])HQ[Aib]DFVEWLLETGPSSGAPPPS-NH2)	0.0422
CC[C@H](C)[C@H](NC(=O)[C@H](CC(C)C)NC(=O)[C@@H](NC(=O)CNC(=O)[C@H](CCC(=O)O)NC(=O)C(C)(C)NC(=O)[C@@H](N)Cc1ccc(O)cc1)[C@@H](C)O)C(=O)N[C@@H](CO)C(=O)N[C@@H](CC(=O)O)C(=O)N[C@@H](Cc1ccc(O)cc1)C(=O)N[C@@H](CO)C(=O)N[C@H](C(=O)N[C@@](C)(CC(C)C)C(=O)N[C@@H](CC(C)C)C(=O)N[C@@H](CC(=O)O)C(=O)N[C@@H](CCCCN)C(=O)N[C@@H](CCCCNC(=O)COCCOCCNC(=O)COCCOCCNC(=O)CC[C@H](NC(=O)CCCCCCCCCCCCCCCCCCC(=O)O)C(=O)O)C(=O)N[C@@H](Cc1c[nH]cn1)C(=O)N[C@@H](CCC(N)=O)C(=O)NC(C)(C)C(=O)N[C@@H](CCC(=O)O)C(=O)N[C@@H](Cc1ccccc1)C(=O)N[C@H](C(=O)N[C@@H](CCC(=O)O)C(=O)N[C@@H](Cc1ccc(O)cc1)C(=O)N[C@@H](CC(C)C)C(=O)N[C@@H](CC(C)C)C(=O)N[C@@H](CCC(=O)O)C(=O)N[C@H](C(=O)NCC(=O)N1CCC[C@H]1C(=O)N[C@@H](CO)C(=O)N[C@@H](CO)C(=O)NCC(=O)N[C@@H](C)C(=O)N1CCC[C@H]1C(=O)N1CCC[C@H]1C(=O)N1CCC[C@H]1C(=O)N[C@@H](CO)C(N)=O)[C@@H](C)O)C(C)C)[C@@H](C)CC [Example 72] (H-Y[Aib]EGTLISDYSI[αMeL]LDKK([AEEA-AEEA-γGlu-C20 diacid])HQ[Aib]EFVEYLLETGPSSGAPPPS-NH2)	0.0594
